The text below walks through data of US20030217372A1, “Methods of using alpha 1b-adrenergic receptors” (priority 2002, published 2003).

SMILES strings stand for the structures.

Type in all cases: in vivo
In experiment [1] the test system is WT and α1bAR-KO mice. As to the kind of experiment: Microdialysis: extracellular DA levels in the nucleus accumbens after systemic D-amphetamine. Here is the method: Mice were anaesthetised with sodium pentobarbital (60 mg/kg; Sanofi Santé Animale, France) and placed in a stereotaxic frame (Kopf instruments). The head was positioned by means of a mouse nose clamp adaptator (Kopf model 922) supplemented by rat ear bars placed lightly in the external auditory meatus. A unilateral permanent cannula (CMA/7 guide cannula, Microdialysis AB, Sweden) was implanted into the nucleus accumbens and was secured on the skull with screw and dental cement. The coordinates for the guide cannula tip were antero-posterior (AP): +1.3 relative to bregma, medio-lateral (ML): +0.8, and dorso-ventral (DV): −2,4 mm from dura (Paxinos and Franklin, The mouse brain in stereotaxic coordinates, Academic Press 2001).
The day of the experiment, the microdialysis probe was inserted (CMA/7, Membrane length 2 mm and diameter 0.24 mm, cut-off: 6000 Da, Microdialysis AB, Sweden, for mice or CMA/11 with identical probe characteristics for rats). Artificial CSF (in mM: NaCl: 147; KCl: 3.5; CaCl2: 1; MgCl2: 1.2; NaH2PO4: 1; NaHCO3: 25, pH=7.6) was perfused with a CMA100 microinjection pump through the probe at a rate of 1 μl/min (2 μl/min for rats) via FEP catheter (internal diameter 0.12 mm for mice) or polyethylene catheter (internal diameter 0.3 mm for rats) connected to a fluid swivel. Adequate steady state of DA levels in perfusate samples was reached 2 hours and 20 minutes after probe insertion for mice and rats, and samples were collected in 300 μl vials placed into a refrigerated computer-controlled fraction collector (CMA/170). Samples (20 μl every 20-minutes for mice and 10 μl every 5 minutes for rats) were collected during 100 minutes and 30 minutes for mice and rats, respectively, to determine basal extracellular DA values.
Dialysate samples were completed to 30 μl with the mobile phase and placed into a refrigerated automatic injector (Triathlon, Spark Holland, Emmen, The Netherlands). Twenty five μl of the sample were injected every 15 minutes through a rheodyne valve in the mobile phase circuit. High-performance liquid chromatography was performed with a reverse-phase column (80×4.6 mm, […] particle size, HR-80, ESA INC., Chelmsford, Mass.). Mobile phase (NaH2PO4 75 mM, EDTA 20 μM, octane sulfonic acid 2.75 mM, triethylamine 0.7 mM, acetonitrile 6%, methanol 6%, and pH 5.2) was delivered at 0.7 ml/min by an ESA-580 pump. Electrochemical detection was performed with an ESA coulometric detector (Coulochem II 5100A, with a 5014B analytical cell; Eurosep, Cergy, France). […]
(§1) Results presented are means±S.E.M of data obtained with 5 to 9 animals. […] Data from microdialysis experiments were expressed as a percentage of the respective mean basal value to compensate for inter-subject differences. […]

For a further experiment, the system named is C57BL6/J mice. As to the kind of experiment: Local perfusion (reverse dialysis) of D-amphetamine in the nucleus accumbens, mice.
In the next experiment the test system is Sprague-Dawley rats. As to the kind of experiment: Local perfusion (reverse dialysis) of D-amphetamine in the nucleus accumbens, rats. As to conditions: read-out: EC50 of DA release (extracellular DA levels). Here is the method:
Extracellular DA levels are expressed in percent of basal DA values (3.50±0.021 and 4.71±0.015 pg DA per 20 minutes for mice and rats, respectively).
Rats were anesthetised with sodium pentobarbital (60 mg/kg; Sanofi Santé Animale, France). A unilateral permanent cannula (CMA/11 guide cannula, Microdialysis AB, Sweden) was implanted into the nucleus accumbens. The coordinates for the guide cannula tip were antero-posterior (AP): +1.7 relative to bregma, medio-lateral (ML): +1.1, and dorso-ventral (DV): −5.7 mm from dura (Paxinos and Watson, Ann. Rev. Pharmacol. Toxicol. 32:63(−77, 1986). After surgery, animals were placed in individual plastic cages and allowed to recover for at least 4 days.
The day of the experiment, the microdialysis probe was inserted (CMA/7, Membrane length 2 mm and diameter 0.24 mm, cut-off: 6000 Da, Microdialysis AB, Sweden, for mice or CMA/11 with identical probe characteristics for rats). […]
as §1

Experiment [2] deals with WT and α1bAR-KO mice. Nature of the experiment: Locomotor activity after systemic D-amphetamine during microdialysis experiments. As to conditions: 120 minutes after injection. Here is the method: (§2) Mice were introduced in a circular corridor (4.5 cm width, 17 cm external diameter) crossed by four infrared beams (1.5 cm above the base) placed at every 90° (Imetronic, Pessac, France). The locomotor activity was counted when animals interrupted two successive beams and, thus, had traveled ¼ of the circular corridor. In each session, the spontaneous activity was recorded for 90 minutes, before mice received either saline or drugs. Their activity was recorded for an additional 60 minutes or 120 minutes period. The first session was a session of habituation to the experimental procedure during which animals received saline (˜3 ml/kg, i.p.). The locomotor response to a drug administration was measured on the following day. Tests were performed between 12:00 and 6:00 p.m. in stable conditions of temperature and humidity.
Results presented are means±S.E.M of data obtained with 5 to 9 animals. Statistical analysis was performed using Graph Pad Prism 3.0 software, (San Diego, Calif.). Data from microdialysis experiments were expressed as a percentage of the respective mean basal value to compensate for inter-subject differences. […] LogEC50's were compared after fitting curves with a Student's t-test. Pharmacological treatments correspond to independent groups of animals. Significant differences were set at p<0.05.

Experiment [3] has as its system WT and α1b-AR KO mice. As to the kind of experiment: Locomotor sensitization induced by repeated drug administration. Here is the method:
Animals spent 90 minutes in the experimental apparatus, received a saline injection and were replaced in the apparatus for 60 minutes. […] Four similar sessions took place every other day. The sixth session took place after a 10-day withdrawal. Locomotor responses measured during the first hour following each injection are presented in function of the number of injections and slope values. N=6 to 15 animals per group.
N=6 to 12 animals per group. […] FIG. 6B represents the time course of the locomotor responses measured every 5 minutes.
as §2
Data were analyzed with Student's t-test or analysis of variance. For behavioral sensitization experiments, correlation between the number of drug injections and the amplitude of the locomotor responses was analyzed with linear regression and the influence of genotype on this correlation with an analysis of covariance. Genotype and prazosin treatments were between-subjects factors. […] Differences were considered significant when p<0.05.
The rate of sensitization was evaluated by determining the slope of the “number of injections/response” curve (FIG. 5).

Experiment [4] has as its system WT and α1b-AR KO mice. Nature of the experiment: Locomotor activity in circular corridor after acute drug injection. As to conditions: for locomotor activity: i.p., different doses. Here is the method: FIG. 2 is a series of dose response graphs that depicts the results of locomotor response to novelty, saline, scopolamine and chloro-APB experiments in WT and α1b-AR KO mice. […] Animals were placed in the experimental apparatus for 90 minutes, received a saline injection and were replaced in the apparatus for 60 minutes. On the following day, animals were placed in the experimental apparatus for 90 minutes, they received an intraperitoneal injection of either saline or scopolamine (1 mg/kg) and their locomotor response was measured every 5 minutes for 60 minutes. FIG. 2D represents the results of locomotor response to chloro-APB; animals were placed in the experimental apparatus for 90 minutes, received a saline injection and were replaced in the apparatus for 60 minutes. On the following days, animals were placed in the experimental apparatus for 90 minutes, they received an intraperitoneal injection of chioro-APB and their locomotor response was measured every 5 minutes for 60 minutes. Several doses of chloro-APB were tested on consecutive days in a random order.
Independent groups of animals were used for each treatment to avoid eventual behavioral sensitization (N=6-16 per group).
as §2

Where [5] appears, read: α1bAR-KO mice, D-amphetamine 3 mg/kg.

Description for C57BL6/J mice: Dialysate samples were completed to 30 μl with the mobile phase and placed into a refrigerated automatic injector (Triathlon, Spark Holland, Emmen, The Netherlands). Twenty five μl of the sample were injected every 15 minutes through a rheodyne valve in the mobile phase circuit. High-performance liquid chromatography was performed with a reverse-phase column (80×4.6 mm, 3 μM particle size, HR-80, ESA INC., Chelmsford, Mass.). Mobile phase (NaH2PO4 75 mM, EDTA 20 μM, octane sulfonic acid 2.75 mM, triethylamine 0.7 mM, acetonitrile 6%, methanol 6%, and pH 5.2) was delivered at 0.7 ml/min by an ESA-580 pump. […]

For `C[C@H](N)Cc1ccccc1.C[C@H](N)Cc1ccccc1.O=S(=O)(O)O` [D-amphetamine, D-amphetamine sulfate], the “extracellular DA levels in the nucleus accumbens” value in the experiment with WT and α1bAR-KO mice [1] (WT mice, D-amphetamine 3 mg/kg i.p.) was “enhanced extracellular DA levels”; with WT and α1bAR-KO mice [1] (WT mice, D-amphetamine 6 mg/kg i.p.), “enhanced extracellular DA levels”; with WT and α1bAR-KO mice [1] (setting [5]) it was “did not modify basal extracellular DA levels”. Further, the “mean increase in extracellular DA levels in the nucleus accumbens” value in the experiment on WT and α1bAR-KO mice [1] (α1bAR-KO mice, D-amphetamine 6 mg/kg, vs basal) is listed as “+25%”. Further, in the experiment on C57BL6/J mice (3 μM D-amphetamine, local perfusion in nucleus accumbens, WT mice vs rats (Darracq et al.)), the “DA release in WT mice lower than previously found in rats” value was “more than 5 fold”. The EC50 (commonly the concentration at which the effect is half-maximal) was 15.6 ± 1.1 µM in the experiment with C57BL6/J mice (C57BL6/J mice, local perfusion in nucleus accumbens, read-out: EC50 of DA release (extracellular DA levels)) and 11.8 ± 1.3 µM with Sprague-Dawley rats. The “locomotor hyperactivity on local perfusion” value with C57BL6/J mice (mice nucleus accumbens, up to 100 μM) is listed as “did not induce any locomotor hyperactivity”. Moreover, the locomotor hyperactivity amounted to 1352±389 in the experiment on WT and α1bAR-KO mice [2] (WT mice, D-amphetamine 3 mg/kg); 2758±199 in the experiment on WT and α1bAR-KO mice [2] (WT mice, D-amphetamine 6 mg/kg); 219±62 in the experiment with WT and α1bAR-KO mice [2] (setting [5]); 734±184 in the experiment on WT and α1bAR-KO mice [2] (α1bAR-KO mice, D-amphetamine 6 mg/kg). The “rate of sensitization: slope of the number of injections/response curve” value in the experiment with WT and α1b-AR KO mice [3] (WT mice, D-amphetamine 1 mg/kg) is on record as 179.8±69.1; in the experiment with WT and α1b-AR KO mice [3] (WT mice, D-amphetamine 2 mg/kg), 265+71; in the experiment on WT and α1b-AR KO mice [3] (α1b-AR KO mice, D-amphetamine 1 mg/kg) it was 33.4±17.7; in the experiment on WT and α1b-AR KO mice [3] (α1b-AR KO mice, D-amphetamine 2 mg/kg), 104.4±31. The “amplitude of locomotor response, α1b-AR KO vs WT mice” value in the experiment with WT and α1b-AR KO mice [4] (D-amphetamine 2 and 3 mg/kg, cocaine and morphine independent of dose) is reported as “significantly lower”. For the same molecule, the locomotor activity result was “dose-dependent stimulation of locomotor activity” in the experiment on WT and α1b-AR KO mice [4] (WT mice); “also increased locomotor activity” in the experiment on WT and α1b-AR KO mice [4] (α1b-AR KO mice).
